Among the data in PubChem BioAssay AID463204 (Broad Institute, 2010) are AC50 values, retold here.

Active and inactive are the calls of the source.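 The calls were made as follows: active = AC50 no more than ten times the top concentration tested, that is within one log above it; inconclusive = flat curve fit with activity between 30% and 70%, or invalid poor fit; inactive = AC50 beyond ten times the top tested dose.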

In this assay the test system is S. cerevisiae Mot1-301 ts growth rescue, BacTiter-Glo ATP luminescence. Nature of the assay: growth rescue of Mot1-301 ts yeast, confirmation, SUMOylation pathway inhibitor project, whole organism, S. cerevisiae, Mot1-301 ts mutant, luminescence, dose retest (AID 463204).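 Also: growth at restrictive 38.5 degrees C of Mot1-301 OY566 strain; actives raise luminescence by restoring growth of the ts mutant at high temperature.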
On to `CCc1nc2ccc(C(=O)N3CCN(CC)CC3)cc2nc1CC`, for which the AC50 (as a rule, the midpoint of the concentration-response curve, whichever way the signal moves) is > 42 µM (inactive).
The figure for `O=C(CSc1ncnc2nc[nH]c12)Nc1ccccc1C(F)(F)F` is > 42 µM (inactive); for `CC(=O)Nc1ccc(C(=O)NCCCOC(C)C)cc1` it is > 42 µM (inactive); for `CCOc1ccc(CCNC(=O)COC(=O)c2cccc(OC)c2O)cc1OCC` it is > 42 µM (inactive).
As for `Cc1ccc(S(=O)(=O)N(C)c2ccc(OC(=O)CN3C(=O)NC4(CCCC4)C3=O)cc2)cc1C`, the figure is > 42 µM (inactive).
For the molecule `Cc1ccc(S(=O)(=O)Oc2ccc(/C=C3\N=C(c4cccc(C)c4)OC3=O)cc2)cc1`, the AC50 was > 42 µM (inactive).
As for `COc1cc(COc2ccc3c(C)c(CC(=O)O)c(=O)oc3c2C)cc(OC)c1OC`, the figure is > 42 µM (inactive).
The figure for `CC(=O)Nc1cccc(C(=O)OCC(=O)NCc2ccc(F)cc2)c1` is > 42 µM (inactive); for `CC1CCCCN1C(=O)C(Cc1ccccc1)N1C(=O)C2CCCCC2C1=O` (centres undefined) it is 32.5 µM; for `CN(C(=O)C1CCCO1)c1nnc(-c2cnccn2)s1` (centres undefined) it is > 42 µM (inactive).
The figure for `Nn1c(SCc2cc([N+](=O)[O-])cc3c2OCOC3)nnc1-c1ccccn1` is > 42 µM (inactive); for `COc1ccc(NC(=O)CN(c2ccc(C(C)C)cc2)S(=O)(=O)c2c(C)noc2C)cc1OC` it is > 42 µM (inactive); for `O=C1CC(c2cccc(Br)c2)C2=C(COC2=O)N1` (centres undefined) it is > 42 µM (inactive).
Turning to `Cc1ccc(-c2cc(C(=O)O)c3ccccc3n2)s1`, the AC50 was > 42 µM (inactive).
The figure for `COC(=O)[C@@H](NC(=O)Nc1ccc(S(N)(=O)=O)cc1)C(C)C` is > 42 µM (inactive); for `COc1ccccc1CC(=O)N1CCN(S(=O)(=O)c2ccccc2)CC1` it is > 42 µM (inactive); for `CN(C)C(/C=C/Nc1cccc(Br)c1)=C(C#N)C#N` it is > 42 µM (inactive).
As for `COc1ccc(C2=NN(C(=S)Nc3ccccc3)C(c3ccccc3)C2)cc1` (centres undefined), the figure is > 42 µM (inactive); as for `CC1CN=C(NCc2ccccc2)S1` (centres undefined), > 42 µM (inactive); as for `Cc1ccc(C(=O)NCCCNC(=O)c2ccc(C)nc2)cc1`, > 42 µM (inactive).
With `CS(=O)(=O)N(CC(=O)NCCSCc1ccccc1)c1ccc2c(c1)OCO2`, the AC50 is > 42 µM (inactive).
The figure for `C/C(=N/OCO/N=C(\C)c1ccccc1)c1ccccc1` is > 42 µM (inactive).
As for `CCOC(=O)C1CC(c2ccccc2)=NNC1=O` (centres undefined), the figure is > 42 µM (inactive); as for `O=C(O)c1ccc(CNC(=O)c2ccccc2NC(=O)c2ccc([N+](=O)[O-])cc2)cc1`, > 42 µM (inactive).
For the molecule `CCCOC(=O)c1c(NC(=O)/C=C/c2cnn(C)c2C)sc(C(=O)OC)c1C`, the AC50 was > 42 µM (inactive).
For `COc1ccc(C(=O)CC(=O)C(=O)Nc2ccc(C)c(C)c2)cc1`, the AC50 was > 42 µM (inactive).
With `CC1=C(C(=O)Nc2ccccc2)C(c2ccccc2[N+](=O)[O-])NC(=O)N1` (centres undefined), the AC50 was > 42 µM (inactive).
The figure for `Cc1ccc(C(=O)NCCCN2CCOCC2)cc1` is > 42 µM (inactive); for `COc1ccc(NC(=O)C2CCCN2S(=O)(=O)c2cccc3cccnc23)cc1OC` (centres undefined) it is > 42 µM (inactive); for `COC(=O)c1cccc(NC(=O)c2ccc[n+]([O-])c2)c1` it is > 42 µM (inactive).
The figure for `O=C(OCC(=O)N1CCN(c2ccccc2)CC1)c1nc(Cl)ccc1Cl` is > 42 µM (inactive); for `CC(C)C[C@@H](CO)N1CCN(Cc2cccnc2)CCC1=O` it is > 42 µM (inactive); for `CCOC(=O)c1ccc(NC(=O)NCc2ccncc2)cc1` it is > 42 µM (inactive).
The figure for `O=C(O)CSc1ncnc2sc(-c3ccccc3)cc12` is > 42 µM (inactive); for `O=C(NCc1ccccc1)c1cccc(COc2ccc(Cl)cc2)c1` it is > 42 µM (inactive); for `CN1C(=O)NC(=O)[C@]2(Cc3ccccc3N3CCN(c4ccccc4)CC32)C1=O` (some centres undefined) it is > 42 µM (inactive).
On to `CC1(OC(=O)CCc2ccccc2)C(=O)C=C2C=C(c3ccc(C#N)cc3)N(C3CCCC3)C=C2C1=O` (centres undefined), for which the AC50 is > 42 µM (inactive).
The figure for `O=C(OCc1ccccc1)c1cccc(-c2nnn(Cc3ccccc3)n2)c1` is > 42 µM (inactive); for `CCN(C(=S)NCCOC)c1cccc2ccccc12` it is > 42 µM (inactive); for `O=C(COC(=O)CSc1ccc([N+](=O)[O-])cc1)NC1CCCCCCC1` it is > 42 µM (inactive).
As for `O=C(CCSc1ccccc1)NNC(=O)c1ccccc1F`, the figure is > 42 µM (inactive); as for `COc1ccccc1N1CCN(C(=O)C2CCN(S(=O)(=O)c3ccc(C)cc3)CC2)CC1`, > 42 µM (inactive).
As for `CCNCCNC(=O)c1c(O)c2c([nH]c1=O)CCCC2`, the figure is > 42 µM (inactive); as for `CN(C)C(CNC(=O)CNC(=O)c1ccc(Br)cc1)c1ccccc1` (centres undefined), > 42 µM (inactive).
`CCC1CCCCN1CCCNC(=O)C1CCC(CNS(=O)(=O)c2c(C)cc(C)cc2C)CC1` (centres undefined): the AC50 is > 42 µM (inactive).
The figure for `COc1ccc(-c2csc(NC(=O)CCS(=O)(=O)c3ccccc3)n2)c(OC)c1` is > 42 µM (inactive); for `COc1cc(C(=O)NCCC2=CCCCC2)cc(OC)c1OC` it is > 42 µM (inactive); for `CCCCC(=O)NC(=S)Nc1cccc(C(=O)O)c1` it is > 42 µM (inactive).
As for `O=C(COC(=O)COc1ccccc1Cl)Nc1ccccc1OC(F)F`, the figure is > 42 µM (inactive).
In the case of `CCCCC1=CC2=CC(=O)C(C)(OC(=O)CC)C(=O)C2=CN1CCCOC(C)C` (centres undefined), the AC50 was > 42 µM (inactive).
The figure for `Fc1ccccc1-n1cc(-c2ccccc2)[nH]c1=S` is > 42 µM (inactive); for `C=CCSC1=C(C#N)C(c2ccc(C(C)C)cc2)CC(=O)N1` (centres undefined) it is 8.36 µM; for `O=C(c1cc(N2C(=O)C3C4CCC(C4)C3C2=O)ccc1Cl)N1CCN(c2ccccc2)CC1` (centres undefined) it is > 42 µM (inactive).
As for `CCOc1ccc(C(C(=O)NC2CCCC2)N(C(=O)c2snc(C(N)=O)c2N)C2CCCC2)cc1` (centres undefined), the figure is 42 µM; as for `Cc1cc(C)cc(OCC(=O)NC2CCCc3ccccc32)c1` (centres undefined), > 42 µM (inactive).
As for `CCOc1ncccc1C(=O)OCC(=O)N(CC)c1ccccc1`, the figure is > 42 µM (inactive); as for `COc1ccccc1CNc1nc(SC)ncc1CO`, > 42 µM (inactive).
As for `COC(=O)CCC(=O)OC1(C)C(=O)C2=CN(CCc3c[nH]c4ccccc34)C(c3ccc(OC)cc3)=CC2=C(Br)C1=O` (centres undefined), the AC50 was > 42 µM (inactive).
Regarding `Cc1cc(N2CCN(C)CC2)nc2ccc(NC(=S)N3CCC4(CC3)OCCO4)cc12`, the AC50 was > 42 µM (inactive).
As for `Cc1nnc(N=c2ssnc2Cl)o1`, the figure is 3.31 µM; as for `CCOC(=O)c1cnc2ccc(Cl)cc2c1N1CCN(C)CC1`, > 42 µM (inactive).
The figure for `COc1ccccc1C(=O)OCC(=O)NC(=O)NCc1ccccc1` is > 42 µM (inactive); for `CC(C)C(O)(C(=O)NNc1ccccc1)C(C)C` it is > 42 µM (inactive).
For `COc1ccc(CCNC(=O)Cn2nnc(-c3ccc(N4CCOCC4)cc3)n2)cc1OC`, the AC50 is > 42 µM (inactive).
As for `CN(c1ccccc1C(=O)N1CCN(Cc2ccc3c(c2)OCO3)CC1)S(C)(=O)=O`, the figure is > 42 µM (inactive); as for `COc1cccc(CN(C)CC2CCCN(CCc3ccc(Cl)cc3)C2)c1OC` (centres undefined), > 42 µM (inactive).
As for `C=CC[N+]1(CC#Cc2ccccc2)CCCC1`, the figure is > 42 µM (inactive).
As to `CC(=O)Nc1ccc(S(=O)(=O)Nc2ccc(S(=O)(=O)Nc3ncccn3)cc2)cc1`, the AC50 is > 42 µM (inactive).
Regarding `Cc1c(C)c2c(c(C)c1O)CCC(C)(C(=O)O)O2` (centres undefined), the AC50 is > 42 µM (inactive).
The figure for `CSc1ncc2ncn(C3OC(CO)C(O)C3O)c2n1` (centres undefined) is > 42 µM (inactive); for `COC(C(=O)Nc1ccnn1C1CCN(Cc2cnn(C)c2)CC1)c1ccccc1` (centres undefined) it is > 42 µM (inactive).
The figure for `CCOC(=O)c1[nH]c2ccc(Br)cc2c1NC(=O)CCN1CCOCC1` is > 42 µM (inactive); for `COc1ccc(NC(=O)C2CCCN(C(=O)Nc3cccc(OC)c3)C2)cc1` (centres undefined) it is > 42 µM (inactive); for `O=C(Nc1nc(-c2ccccn2)cs1)c1ccc2c(c1)OCCO2` it is > 42 µM (inactive).
As for `NNC(=O)c1[nH]c2ccccc2c1-c1ccccc1`, the figure is > 42 µM (inactive); as for `Nc1ncnc2nc(SCC(=O)N3CCN(c4ccccc4)CC3)[nH]c12`, > 42 µM (inactive); as for `CC(=O)Nc1sc2c(c1C(c1ccc(F)cc1)N1CCOCC1)CCCC2` (centres undefined), 11.8 µM.
As to `Cc1ccc(-n2nc3c(=O)n(CCCC(=O)NCc4cccc(F)c4)nc(C)c3c2C)cc1`, the AC50 was > 42 µM (inactive).
On to `Cc1ccc(NC(=O)COc2ccccc2C(=O)NCCN(C)C)cc1`, for which the AC50 is > 42 µM (inactive).
As for `Cc1cccc(N2CCN(CCCNC(=O)c3ccc(NC(=O)C4=CSCCO4)cc3)CC2C)c1` (centres undefined), the figure is > 42 µM (inactive); as for `O=C(N/N=C/c1ccccc1)c1[nH]c2ccc(Br)cc2c1-c1ccccc1`, > 42 µM (inactive).
As for `O=C(NNC(=O)C12CC3CC(CC(C3)C1)C2)c1ccccn1`, the figure is 21 µM.
As for `COc1ccc(NC(=O)CCC(=O)Nc2nnc(C(F)(F)F)s2)c(OC)c1`, the figure is > 42 µM (inactive).
As to `Cc1ccc(-c2csc(NC(=O)CSc3nc(C)cs3)n2)cc1`, the AC50 is > 42 µM (inactive).
As for `O=C(NCc1ccccn1)C1Nc2ccc(C(F)(F)F)cc2C2C=CCC12` (centres undefined), the figure is > 42 µM (inactive); as for `Cc1nnc(NC(=O)c2ccc(-c3cccc(C(F)(F)F)c3)o2)s1`, > 42 µM (inactive); as for `O=C(Nc1ccsc1C(=O)O)c1cccc(C(F)(F)F)c1`, > 42 µM (inactive).
As for `O=S(=O)(Nc1ccc(N2CCOCC2)cc1)c1cccs1`, the figure is > 42 µM (inactive).
As for `CCC(C)NCCCCOc1cc(C)cc(C(C)C)c1` (centres undefined), the figure is > 42 µM (inactive).
